# Molecular target: T1, hNK2 receptor (Homo sapiens, UniProt P21452)
# T1 construct: host or cells: CHO cells
# T1 sequence (P21452 1-398): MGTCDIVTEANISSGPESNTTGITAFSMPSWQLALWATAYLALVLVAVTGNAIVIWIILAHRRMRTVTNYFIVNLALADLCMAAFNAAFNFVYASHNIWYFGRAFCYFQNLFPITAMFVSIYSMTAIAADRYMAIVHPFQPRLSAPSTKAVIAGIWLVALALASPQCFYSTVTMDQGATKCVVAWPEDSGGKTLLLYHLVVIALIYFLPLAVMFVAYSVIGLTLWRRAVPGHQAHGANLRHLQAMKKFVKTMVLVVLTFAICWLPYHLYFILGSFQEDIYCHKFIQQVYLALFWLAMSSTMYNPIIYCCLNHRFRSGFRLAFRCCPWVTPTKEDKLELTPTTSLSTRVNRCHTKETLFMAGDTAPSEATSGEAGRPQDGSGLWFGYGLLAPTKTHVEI
# Assay: Radio-ligand ([125I]-NKA) receptor binding inhibitory activity using membrane fraction of hNK2 receptor-expressing CHO cell
# Details: membrane fraction of hNK2 receptor-expressing CHO cells, 25° C., 30 min
# Protocol: hNK2 receptor-expressing CHO cells (produced by EUROSCREEN) were cultured in HAM-F12 medium containing 400 μg/ml Geneticin, 100 U/mL penicillin, 100 μg/mL streptomycin and 10% inactivated serum. The medium was removed and adhered cells were washed with PBS, and PBS containing 5 mM EDTA was added to detach the cells from the flask. The cells were recovered by centrifugation, suspended in suspending buffer A (15 mM Tris-HCl (pH 7.5), 2 mM MgCl2, 0.3 mM EDTA, 1 mM EGTA), disrupted by POLYTRON homogenizer (manufactured by KINEMATICA) and centrifuged at 800×g for 10 min. The supernatant was recovered and ultracentrifuged at 100000×g for 25 min. The precipitated fraction was suspended in suspending buffer B (7.5 mM Tris-HCl (pH 7.5), 12.5 mM MgCl2, 0.3 mM EDTA, 1 mM, […], 250 mM Sucrose) and cryopreserved (at −80° C.) as a receptor specimen.
# An assay buffer (50 μl, 50 mM Tris-HCl (pH 7.4), 0.02% bovine serum albumin, 2 μg/mL chymostatin, 40 μg/mL bacitracin, 40 μg/mL APMSF, 3 mM MnCl2) was added to a 96 well microassay plate. Thereto was added a 20 μg/mL membrane specimen suspended in the assay buffer (50 μL). An assay buffer (50 μL) containing 2% dimethyl sulfoxide was added to examine the total binding, 4 unlabeled NKA (produced by Peptide Institute, Inc.) solution (50 μL) diluted with an assay buffer containing 2% dimethyl sulfoxide was added to examine non-specific binding, and a test compound diluted with an assay buffer (50 containing 2% dimethyl sulfoxide) was added to examine the binding inhibitory activity of the test compound. Furthermore, […] [^125I]-NKA (produced by Amersham Biosciences) solution (50 μL) was added to each well.
# After reaction at 25° C. for 30 min., the reaction was stopped by rapid filtration on a unifilter plate (GF/C) (manufactured by PerkinElmer) using a cell harvester (manufactured by PerkinElmer) and the cells were washed 5 times with 50 mM Tris-HCl (pH 7.4) buffer containing 0.02% bovine serum albumin (250 μL). The GF/C filter plate was dried and 20 μl, of MicroScinti-O (manufactured by PerkinElmer) was added and the radioactivity was measured in Topcount (manufactured by PerkinElmer). The GF/C filter plate, which had been immersed in 0.3% polyethyleneimine for one day, was used. Specific binding is shown by the value obtained by subtracting non-specific binding from the total binding. The binding inhibitory activity of the test compound is shown by the ratio of the value obtained by subtracting the measured value associated with the addition of the test compound from the total binding, to the value of the specific binding.
row,SMILES,IC50 [nM]
1,"O=C(N[C@@H]1CCCC[C@@H]1C(=O)N1CC[C@@H]2C(C3CCOCC3)Nc3ccccc3[C@@H]21)c1ccccc1 (stereo in doubt) [Example 79, N-((1R,2S)-2-{[(3aR,4R,9bR)-4-Tetrahydro-2H-pyran-4-yl-2,3,3a,4,5,9b-hexahydro-1H-pyrrolo[3,2-c]quinolin-1-yl]carbonyl}cyclohexyl)benzamide]",< 10
2,"O=C(N[C@@H]1CCCC[C@@H]1C(=O)N1CC[C@@H]2[C@H](C3CC3)Nc3ccccc3[C@@H]21)c1ccccc1 [Example 59, N-((1R,2S)-2-[(3aR,4S,9bR)-(4-Cyclopropyl-2,3,3a,4,5,9b-hexahydro-1H-pyrrolo[3,2-c]quinolin-1-yl)carbonyl]cyclohexyl)benzamide]",< 10
3,"O=C(N[C@@H]1CCCC[C@@H]1C(=O)N1CC[C@@H]2[C@H](c3ccsc3)Nc3ccccc3[C@@H]21)c1ccccc1 [Example 60, N-((1R,2S)-2-{[(3aR,4R,9bR)-4-(3-Thienyl)-2,3,3a,4,5,9b-hexahydro-1H-pyrrolo[3,2-c]quinolin-1-yl]carbonyl}cyclohexyl)benzamide]",< 1
4,"O=C(N[C@@H]1CCCC[C@@H]1C(=O)N1CC[C@@H]2[C@H](c3ccccc3)Nc3ccc(F)cc3[C@@H]21)c1ccccc1 [Example 61, N-((1R,2S)-2-{[(3aR,4R,9bR)-8-Fluoro-4-phenyl-2,3,3a,4,5,9b-hexahydro-1H-pyrrolo[3,2-c]quinolin-1-yl]carbonyl}cyclohexyl)benzamide]",< 10
5,"O=C(N[C@@H]1CCCC[C@@H]1C(=O)N1CC[C@@H]2[C@H](c3ccc[nH]3)Nc3ccccc3[C@@H]21)c1ccccc1 [Example 64, N-((1R,2S)-2-{[(3aR,4R,9bR)-4-(1H-Pyrrol-2-yl)-2,3,3a,4,5,9b-hexahydro-1H-pyrrolo[3,2-c]quinolin-1-yl]carbonyl}cyclohexyl)benzamide]",< 1
6,"CC(C)C[C@@H]1Nc2ccccc2[C@H]2[C@@H]1CCN2C(=O)[C@H]1CCCC[C@H]1NC(=O)c1ccccc1 [Example 66, N-((1R,2S)-2-{[(3aR,4S,9bR)-4-Isobutyl-2,3,3a,4,5,9b-hexahydro-1H-pyrrolo[3,2-c]quinolin-1-yl]carbonyl}cyclohexyl)benzamide]",< 10
7,"Cc1occc1[C@@H]1Nc2ccccc2[C@H]2[C@@H]1CCN2C(=O)[C@H]1CCCC[C@H]1NC(=O)c1ccccc1 [Example 75, N-((1R,2S)-2-{[(3aR,4R,9bR)-4-(2-Methyl-3-furyl)-2,3,3a,4,5,9b-hexahydro-1H-pyrrolo[3,2-c]quinolin-1-yl]carbonyl}cyclohexyl)benzamide]",< 10
8,"O=C(N[C@@H]1CCCC[C@@H]1C(=O)N1CC[C@@H]2[C@H](c3cocn3)Nc3ccccc3[C@@H]21)c1ccccc1 [Example 76, N-((1R,2S)-2-{[(3aR,4R,9bR)-4-(1,3-Oxazol-4-yl)-2,3,3a,4,5,9b-hexahydro-1H-pyrrolo[3,2-c]quinolin-1-yl]carbonyl}cyclohexyl)benzamide]",< 10
9,"O=C(N[C@@H]1CCCC[C@@H]1C(=O)N1CC[C@@H]2[C@H](c3cncs3)Nc3ccccc3[C@@H]21)c1ccccc1 [Example 78, N-((1R,2S)-2-{[(3aR,4R,9bR)-4-(1,3-Thiazol-5-yl)-2,3,3a,4,5,9b-hexahydro-1H-pyrrolo[3,2-c]quinolin-1-yl]carbonyl}cyclohexyl)benzamide]",< 10
10,"C[C@]12CCN(C(=O)[C@H]3CCCC[C@H]3NC(=O)c3ccccc3)[C@H]1c1ccccc1N[C@H]2c1ccccc1 [Example 83, N-((1R,2S)-2-{[(3aR,4S,9bR)-3a-Methyl-4-phenyl-2,3,3a,4,5,9b-hexahydro-1H-pyrrolo[3,2-c]quinolin-1-yl]carbonyl}cyclohexyl)benzamide]",< 10
11,"CC(=O)N[C@@H]1CCCC[C@@H]1C(=O)N1CC[C@@H]2[C@H](c3ccccc3)Nc3ccccc3[C@@H]21 [Example 85, N-((1R,25)-2-{[(3aR,4R,9bR)-4-Phenyl-2,3,3a,4,5,9b-hexahydro-1H-pyrrolo[3,2-c]quinolin-1-yl]carbonyl}cyclohexyl)acetamide]",< 10
12,"CCC(=O)N[C@@H]1CCCC[C@@H]1C(=O)N1CC[C@@H]2[C@H](c3ccccc3)Nc3ccccc3[C@@H]21 [Example 86, N-((1R,2S)-2-{[(3aR,4R,9bR)-4-Phenyl-2,3,3a,4,5,9b-hexahydro-1H-pyrrolo[3,2-c]quinolin-1-yl]carbonyl}cyclohexyl)propanamide]",< 10
13,"O=C(N[C@@H]1CCCC[C@@H]1C(=O)N1CC[C@@H]2[C@H](c3ccccc3)Nc3ccccc3[C@@H]21)c1ccc(C(F)(F)F)cc1 [Example 87, N-((1R,2S)-2-{[(3aR,4R,9bR)-4-Phenyl-2,3,3a,4,5,9b-hexahydro-1H-pyrrolo[3,2-c]quinolin-1-yl]carbonyl}cyclohexyl)-4-(trifluoromethyl)benzamide]",< 10

# Second part, the molecule after the results:
row,IC50 [nM],SMILES
1,< 10,"O=C(N[C@@H]1CCCC[C@@H]1C(=O)N1CC[C@@H]2[C@H](c3ccn[nH]3)Nc3ccccc3[C@@H]21)c1ccccc1 (relative stereo) [Example 56, N-((1R,2S)-2-{[(3aR*,4R*,9bR*)-4-(1H-Pyrazol-5-yl]-2,3,3a,4,5,9b-hexahydro-1H-pyrrolo[3,2-c]quinolin-1-yl]carbonyl}cyclohexyl)benzamide]"
2,< 10,"O=C(NC1(CC(=O)N2CC[C@@H]3[C@H](c4ccccc4)Nc4ccccc4[C@@H]32)CCCCC1)c1ccccc1 (relative stereo) [Example 312, N-(1-{2-oxo-2-[(3aR*,4R*,9bR*)-4-phenyl-2,3,3a,4,5,9b-hexahydro-1H-pyrrolo[3,2-c]quinolin-1-yl]ethyl}cyclohexyl)benzamide]"
3,< 10,"O=C(N[C@@H]1CCCC[C@@H]1C(=O)N1CC[C@@H]2[C@H](c3ccccc3)Nc3ccccc3[C@@H]21)c1ccccc1 [Example 58, N-{(1R,2S)-2-[((3aR,4R,9bR)-4-Phenyl-2,3,3a,4,5,9b-hexahydro-1H-pyrrolo[3,2-c]quinolin-1-yl)carbonyl]cyclohexyl}benzamide]"
4,< 1,"CCC[C@@H]1Nc2ccccc2[C@H]2[C@@H]1CCN2C(=O)[C@H]1CCCC[C@H]1NC(=O)c1ccccc1 [Example 62, N-{(1R,2S)-2-[(3aR,4S,9bR)-(4-Propyl-2,3,3a,4,5,9b-hexahydro-1H-pyrrolo[3,2-c]quinolin-1-yl)carbonyl]cyclohexyl}benzamide]"
5,< 1,"O=C(N[C@@H]1CCCC[C@@H]1C(=O)N1CC[C@@H]2[C@H](c3ccoc3)Nc3ccccc3[C@@H]21)c1ccccc1 [Example 63, N-((1R,2S)-2-{[(3aR,4R,9bR)-4-(3-Furyl)-2,3,3a,4,5,9b-hexahydro-1H-pyrrolo[3,2-c]quinolin-1-yl]carbonyl}cyclohexyl)benzamide]"
6,< 10,"O=C(NCC[C@@H]1Nc2ccccc2[C@H]2[C@@H]1CCN2C(=O)[C@H]1CCCC[C@H]1NC(=O)c1ccccc1)OCc1ccccc1 [Example 68, Benzyl 2-((3aR,4S,9bR)-1-{[(1S,2R)-2-(benzoylamino)cyclohexyl]carbonyl}-2,3,3a,4,5,9b-hexahydro-1H-pyrrolo[3,2-c]quinolin-4-yl)ethylcarbate]"
7,< 1,"O=C(N[C@@H]1CCCC[C@@H]1C(=O)N1CC[C@@H]2[C@H](c3ncc[nH]3)Nc3ccccc3[C@@H]21)c1ccccc1 [Example 81, N-((1R,2S)-2-{[(3aR,4R,9bR)-4-(1H-imidazol-2-yl)-2,3,3a,4,5,9b-hexahydro-1H-pyrrolo[3,2-c]quinolin-1-yl]carbonyl}cyclohexyl)benzamide]"
8,< 10,"Cn1ccnc1[C@@H]1Nc2ccccc2[C@H]2[C@@H]1CCN2C(=O)[C@H]1CCCC[C@H]1NC(=O)c1ccccc1 [Example 82, N-((1R,2S)-2-{[(3aR,4R,9bR)-4-(1-Methyl-1H-imidazol-2-yl)-2,3,3a,4,5,9b-hexahydro-1H-pyrrolo[3,2-c]quinolin-1-yl]carbonyl}cyclohexyl)benzamide]"

# — patent US7943770B2, “Fused quinoline derivative and use thereof” (Takeda Pharmaceutical Company Limited, priority 2004, dated 2011)
